Measurements from paper PMC7358525, “Characterization of PF-6142, a Novel, Non-Catecholamine Dopamine Receptor D1 Agonist, in Murine and Nonhuman Primate Models of Dopaminergic Activation” (Frontiers in Pharmacology, 2020).

How the values were obtained:
Assay type in all cases: in vivo
[1] = test system: mouse locomotor activity; experiment: Mouse locomotor activity (LMA)
Experimental: Locomotor activity data were measured by an automated infrared photo-beam system in sound attenuating chambers controlled by Versamax® software, provided by Accuscan Instruments Inc. (Columbus, Ohio), which quantified beam breaks similar to the methods used previously ([Xu et al., 2000]). To test D1 receptor selectivity in a pharmacologic model, C57BL/6J mice were habituated to the apparatus for 90 min, followed by pretreatment with vehicle or SCH-23390 (0.01, 0.032, 0.1 0.32, s.c.) and returned to the apparatus for 30 min. […] Data were compared against the vehicle group using a repeated measures one-way ANOVA with a Dunnett’s post-test. To test D1 receptor selectivity in a genetic model, DRD1a WT and knockout mice (D1 KO) were habituated to the apparatus for 90 min, pretreated with vehicle or SCH-23390 (0.032 mg/kg, s.c.) and returned to the apparatus for 30 min. […] Data were compared within genotype using a two-way ANOVA with a Dunnett’s post-hoc test versus vehicle treated group.

[2] = test system: mPFC low frequency delta activity; experiment: mPFC low frequency delta field potential oscillation power, anesthetized rat
Experimental: (§1) Experiments were performed on n=10 adult male Sprague-Dawley rats (275–305 g) under urethane anesthesia (1.5 g/kg, i.p.). The femoral vein was cannulated for i.v. administration of drugs. A stimulation electrode was placed in the CA1/subiculum region (coordinates: A-P = +6.3 mm, M–L = +5.2 mm, D-V = +8.0 mm) using stereotactic methods and unilateral local field potential (LFP) was recorded by a metal monopolar macroelectrode placed into the medial PFC (mPFC; coordinates: A-P = +3.0 mm, M-L = +0.6 mm, D-V = +5.0 mm). […] Evoked responses to the first and the second stimuli were identified (P1 and P2, respectively) and the amount of PPF determined by the formula: (P2 amplitude/P1 amplitude). Waveform averages used to calculate PPF consisted of 60 consecutive stimuli. Five minutes were allowed between administration of each drug dose and the starting of the subsequent average of each 10-min period after each cumulative dose (0.1–1 mg/kg, IV). Disruption in power of LFP delta activity was measured as the percentage of power in low frequency (0–1.8 Hz) irregular activity in the total (0–4 Hz) delta power range. LFP power spectra were determined during periods concurrent with waveform averages and PPF calculation. Statistical significance was determined by means of two-tailed paired Student’s t-test.

[3] = test system: MK-801-disrupted paired-pulse facilitation; experiment: Paired-pulse facilitation (PPF), CA1/subiculum to mPFC, urethane-anesthetized rat
Experimental: as §1

[4] = test system: acetylcholine levels in the PFC of WT and D1 KO mice; experiment: Prefrontal cortex acetylcholine levels via microdialysis, WT and D1 KO mouse; conditions: SCH-23390 0.32 mg/kg SC, mice
Description: Adult male Sprague-Dawley rats (280–360 g) were obtained from Charles-River Laboratories, Raleigh, NC and male C57BL/6J DRD1a WT and D1 DA receptor knockout mice (DRD1a-905781) were obtained from The Jackson Laboratories (Bar Harbor, ME). Animals were housed on a 12-h light/dark cycle with free access to food and water and allowed to acclimate for at least 5 d after arrival. Aseptic technique was used during the surgical procedure in order to prevent infection. On the day of the procedure animals were anesthetized with isoflurane (4%) and their heads shaved. The animals were then placed into a Kopf stereotaxic frame, the surgical area disinfected by swabbing with Provodine solution, and the area isolated with a sterile surgical drape. Anesthesia was maintained with isoflurane (2.5%–3%) delivered through a nose cone using a Univentor 400 anesthesia unit. Animals were given a 0.1 ml subcutaneous (s.c.) injection of Metacam (NSAID, meloxicam, 5 mg/ml, Boehringer Ingelheim) as a post-operative analgesic. Marcaine (bupivacaine, 0.5%, Hospira, Lake Forest, IL), a long acting local anesthetic, was administered s.c. at the surgical area to minimize pain and discomfort.
A 1.5–2 cm incision was made along the midline of the skull, beginning from a point just behind the eyes and running posterior. The skin was retracted with hemostats and the skull was further exposed using blunt dissection with cotton swabs. Bleeding capillaries were cauterized, and the skull dried with a sterile gauze sponge.
A microdialysis guide cannula [Bioanalytical Systems Inc (BAS), West Lafayette, IN, part # MD-2251] was placed into a guide holder on the stereotaxic frame and positioned over “Bregma”. The guide cannula was positioned over the PFC (A-P, +3.2 mm; M-L, +0.7 mm, left, relative to bregma) and the location marked on the skull. Using a 0.7 mm burr, a hole was made in the skull at the cannula position. […]
For conventional analysis, ACh was analyzed by high performance liquid chromatography (HPLC) utilizing a modification of the BAS ACh-choline assay kit (BAS part # MF-8910). […]

[5] = test system: prepulse inhibition of startle; experiment: Mouse prepulse inhibition (PPI) and acoustic startle; conditions: risperidone 0.56 mg/kg s.c., C57BL/6J mice
Experimental: Drug and behaviorally naïve adult male C57BL/6J mice (9–11 weeks of age; n=8 per dose group) were used for PPI experiments. Subjects were tested individually in SR-Lab acoustic startle chambers (San Diego Instruments, San Diego CA, USA) equipped with a restrainer mounted atop a piezoelectric accelerometer which measured transduced movement in response to the presentation of audio stimuli presented through a speaker mounted 20 cm above the animal. Subjects were acclimated to an anteroom adjacent to the testing room at minimum 60 min prior to testing. Test sessions began with a 5 min acclimation period to background noise (65 dB) followed by presentation of six randomized repetitions of the 120 dB startle stimulus (40 ms duration) presented alone or paired in combination with a pre-pulse stimulus of 68, 72, or 74 db (20 msec in duration) presented 80 msec prior to the 120 dB startle stimulus, which was equivalent to +3, +7, and +9 db over background noise, respectively. Data were also recorded for no stimulus values to evaluate background level of response. The inter-trial interval between stimulus presentations was randomized and ranged from 10 to 20 s. Test compounds were administered 30 min (s.c.) prior to testing. […] Percent PPI was calculated for each individual subject as the relative change in the 120 dB startle response in the presence of each prepulse intensity using the formula: 100-((prepulse-pulse)/pulse)*100 as previously described ([Ralph-Williams et al., 2003]).
The experiment was analyzed using a two-way mixed model ANOVA (lme4 library in R software). The model included prepulse stimulus intensity levels, treatment (as all combinations of pre-treatment and treatment), and their interaction as fixed factors and random intercept, random slope for each animal as random factors. […] In order to adjust for multiple hypothesis testing we used false discover rate method which controls the expected proportion of false discoveries among the rejected hypotheses. For all statistical tests, p < 0.05 between groups was considered significant.

[6] = test system: conditioned avoidance responding; experiment: Rat conditioned avoidance response (CAR)
Experimental: The CAR assay was performed under similar conditions previously described ([Marquis et al., 2011]) at WuXiAppTec Inc. (Delin Rd. #90, Waigaoquiao Free Trade Zone, Shanghai 200131, China). For this study, adult male Fisher-344 rats were trained and tested in a two-way active avoidance apparatus with MED-PC software (MED Associates, St. Albans, VT, USA).
Briefly, subjects were handled and acclimated to the shuttle boxes for 2 d prior to training sessions. During training sessions, subjects were trained to avoid an electric footshock by moving to the adjacent, non-stimulus side of the shuttle box upon presentation of tone + light stimuli which preceded the presentation of the footshock (0.6 mA, 10 s duration) by 10 s. For this assay an avoidance was defined as moving to the adjacent compartment during the tone+light presentation that preceded the shock, an escape was defined as moving to the adjacent compartment upon presentation of the shock, and an escape failure was defined as a lack of relocation to the adjacent compartment throughout the presentation of the shock. Subjects received 30 trials of training per day for 5 d. Subjects with ≥ 80% avoidance responses on two consecutive days with no escape failures, were considered qualified for testing, and were randomized across treatment groups (n=8–9 per treatment group). […] Avoidance responding was calculated as % of the number of total trials in which an avoidance occurred. Data were calculated for each animal and compared across treatment groups using one-way ANOVA with Dunnett’s post-test versus the vehicle + vehicle treated group.

NC[C@@H]1O[C@H](C23CC4CC(CC(C4)C2)C3)Cc2c1ccc(O)c2O [A-77636, reference compound]
locomotor activity, five consecutive days of dosing ([1]; 3.2 mg/kg s.c. daily, CD-1 mice): increased locomotor activity

C[C@]12N[C@H](Cc3ccccc31)c1ccccc12 [MK-801]
low frequency (0-1.8 Hz) irregular delta activity ([2]; MK-801 0.1 mg/kg IV (p=0.01)): significant increase | increase of P1 response amplitude ([3]; MK-801 0.1 mg/kg IV): 44% | increase of P2 response amplitude ([3]; MK-801 0.1 mg/kg IV): 10% | PPF ([3]; MK-801 0.1 mg/kg IV (p=0.04)): significant decrease

CN1CCc2cc(Cl)c(O)cc2[C@@H](c2ccccc2)C1 [SCH-23390, reference compound]
effect on PF-6142-induced increase in PFC ACh level [4]: attenuated | effect on PF-6142-increased activity in WT mice ([1]; SCH-23390 0.032 mg/kg s.c. pretreatment): attenuated | effect on PF-6142 (10 mg/kg s.c.)-stimulated activity ([1]; SCH-23390 pretreatment 0.01, 0.032, 0.1, 0.32 mg/kg s.c.): blocked | mPFC low frequency delta activity ([2]; SCH-23390 0.32 mg/kg IV alone (p=0.19)): no significant effect | baseline P1 and P2 response amplitudes ([3]; SCH-23390 0.32 mg/kg IV): no effect | control PPF ([3]; SCH-23390 0.32 mg/kg IV (p=0.06)): no impact | effect on PF-6142 (1-3 mg/kg IV) reversal of MK-801 effects on PPF ([3]; SCH-23390 0.32 mg/kg IV pretreatment): block

Cc1nc2n(c(=O)c1CCN1CCC(c3noc4cc(F)ccc34)CC1)CCCC2 [risperidone, reference compound]
%PPI [5]: produced an increase in %PPI | mean % avoidance responses ([6]; risperidone 0.1 mg/kg s.c.): 83.33% | mean % avoidance responses ([6]; risperidone 0.56 mg/kg s.c. (p<0.001)): 6.875%
